In PMC12067350, “Discovery of Thieno[3,2‑b]pyridine-5-carboxamide and 2,3-Difluorobenzamide Negative Allosteric Modulators of Metabotropic Glutamate Receptor Subtype 5” (ACS Medicinal Chemistry Letters, 2025):
“Also recorded” adds a separate entry of the source. Where two headings read alike, the source gives them in different places.

Assays:
[1] = Binding in plasma from human (equilibrium dialysis); assay type: in vitro ADME; settings: fraction unbound
Method: Binding in plasma from rat and human.
Determination of compounds’ fraction unbound (f u) in plasma from rat and human was conducted in vitro via equilibrium dialysis using HTDialysis membrane plates. Dialysis membranes (four paired strips per HTD assay) were hydrated as described by the manufacturer and inserted into the HTD plate, which was assembled and prepared for sample addition by the dispensing of blank buffer (DPBS, 100 µL/well) into the ‘top half’ of each membrane-split well. Each compound was diluted into plasma from each species (5 µM final concentration), which was aliquoted in triplicate to the ‘bottom half’ of the prepared HTD plate wells. The HTD plate was sealed and incubated for 6 hours at 37 °C. Following incubation, each well (both top and bottom halves) were transferred (20 µL) to the corresponding wells of a 96-shallow-well (V-bottom) plate. The daughter plates were then matrix-matched (buffer side wells received equal volume of plasma, and plasma side wells received equal volume of buffer), and extraction solution (120 µL; acetonitrile containing 50 nM carbamazepine as IS) was added to all wells of both daughter plates to precipitate protein and extract test article. The plates were then sealed and centrifuged (3500 rcf) for 10 minutes at ambient temperature. Supernatant (60 µL) from each well of the daughter plates was then transferred to the corresponding wells of new daughter plates (96-shallow-well, V bottom) containing water (Milli-Q, 60 µL/well), and the plates were sealed in preparation for LC-MS/MS analysis (see below). fu was calculated as (analyte to IS MS peak area ratio from Trans-buffer side) / (analyte to IS MS peak area ratio from Cis-plasma side). Mean values for each species were calculated from 3 replicates. […]
Mean values for each species were calculated from 3 replicates.

human mGlu5 [2] = biological target: T1, human mGlu5 (Homo sapiens, UniProt P41594); assay: Calcium mobilization assay in human mGlu5-HEK293A cells (NAM, EC80 glutamate); assay type: cell-based; settings: for %Glumin: efficacy of the NAM to reduce an EC80 response of glutamate
T1 construct: expressed in transfected cells

[3] = Intrinsic clearance in rat liver microsomes; assay type: in vitro ADME; settings: predicted hepatic clearance from in vitro rat microsomal data
Method: Intrinsic Clearance in Rat and Human Liver Microsomes
The in vitro intrinsic clearance (CL int) was investigated in commercially obtained hepatic microsomes from rat and human donors using the substrate depletion (i.e., loss-of-parent vs. time, or t 1/2 method) approach with analyte detection via liquid chromatography-tandem mass spectrometry (LC-MS/MS). For each species, mean %parent remaining values at each time point were calculated from replicates raw data (analyte:IS peak area ratios) and used to determine in vitro t 1/2 and CLint.
Experiments were carried out using a robot-assisted (TECAN model Evo 200). Compound was incubated (1 µM final concentration) in buffer (100 mM potassium phosphate pH 7.4 with 3 mM MgCl2) containing hepatic microsomes (0.5 mg/mL final concentration) from multiple species, discretely, at 37 °C under constant orbital shaking. After 5 minutes (pre-incubation), reactions were initiated by addition of nicotinamide adenine dinucleotide phosphate (NADPH, 1 mM final concentration). At selected time intervals (0, 3, 7, 15, 25, and 45 minutes) post-addition of NADPH, aliquots (50 µL) were taken and placed into a 96-shallow-well plate containing ice cold acetonitrile (150 µL) with carbamazepine (IS, 50 nM). The plates were then centrifuged (3000 rcf at 4 °C) for 10 minutes. The supernatants were transferred to a new 96-shallow-well daughter plate and diluted (1:1 v/v) with water (Milli-Q filtered). The plates were then sealed in preparation for LC-MS/MS analysis (see below).
Raw LC-MS/MS peak area data generated from the assay samples were used to construct natural log-transformed %parent remaining vs. time plots (using t = 0 minute post-NADPH addition sample data as starting point set to 100%). In vitro compound half-life (t 1/2) values were obtained using the following […]
k is the slope from linear regression analysis of the natural log-transformed data (using means from Where all replicates at each time point). Resulting t 1/2 values were then used to calculate hepatic CLint values according to the following equation and with the use of species-specific scale-up factors for liver weight (grams) per total body weight (kg):
CL = 0.693 x 1 mL incubation x 45 mg microsomes x a gram liver
int in vitro t1/2 0.5 mg microsomes 1 gram liver kg body wt aScale-up factors used are 45 (rat) and 20 (human).1
Predicted hepatic clearance (CLhep) was calculated using the following equation: […]
Qh represents hepatic blood flow (mL/min/kg): 21 for human, 70 for rat, and 90 for mouse.

[4] = design: method as in PMID 31589885; settings: led to termination of trials; attributed to off-target MAO-B; cited from earlier work
[5] = literature, cited from earlier work
[6] = rat, cited from earlier work
[7] = design: method as in PMID 28530802; settings: NHP, 28-day study, AO metabolite accumulated after 14 days, nonmechanism based; cited from earlier work
[8] = cited from earlier work
[9] = design: method as in PMID 30446311; settings: cited from earlier work
human mGlu5 [10] = biological target: T1, human mGlu5; settings: previously published picolinamide series; read-out: hmGlu5 IC50; cited from earlier work
M1 = test system: M1; design: method as in PMID 37101980; settings: cited from earlier work
[11] = human mGlu5-HEK293A cells, EC80 fixed concentration of glutamate, n = 2 in triplicate
[12] = human mGlu5-HEK293A cells, EC80 fixed concentration of glutamate, n = 2 in triplicate, read-out: IC50

T1 sequence (P41594 21-1212): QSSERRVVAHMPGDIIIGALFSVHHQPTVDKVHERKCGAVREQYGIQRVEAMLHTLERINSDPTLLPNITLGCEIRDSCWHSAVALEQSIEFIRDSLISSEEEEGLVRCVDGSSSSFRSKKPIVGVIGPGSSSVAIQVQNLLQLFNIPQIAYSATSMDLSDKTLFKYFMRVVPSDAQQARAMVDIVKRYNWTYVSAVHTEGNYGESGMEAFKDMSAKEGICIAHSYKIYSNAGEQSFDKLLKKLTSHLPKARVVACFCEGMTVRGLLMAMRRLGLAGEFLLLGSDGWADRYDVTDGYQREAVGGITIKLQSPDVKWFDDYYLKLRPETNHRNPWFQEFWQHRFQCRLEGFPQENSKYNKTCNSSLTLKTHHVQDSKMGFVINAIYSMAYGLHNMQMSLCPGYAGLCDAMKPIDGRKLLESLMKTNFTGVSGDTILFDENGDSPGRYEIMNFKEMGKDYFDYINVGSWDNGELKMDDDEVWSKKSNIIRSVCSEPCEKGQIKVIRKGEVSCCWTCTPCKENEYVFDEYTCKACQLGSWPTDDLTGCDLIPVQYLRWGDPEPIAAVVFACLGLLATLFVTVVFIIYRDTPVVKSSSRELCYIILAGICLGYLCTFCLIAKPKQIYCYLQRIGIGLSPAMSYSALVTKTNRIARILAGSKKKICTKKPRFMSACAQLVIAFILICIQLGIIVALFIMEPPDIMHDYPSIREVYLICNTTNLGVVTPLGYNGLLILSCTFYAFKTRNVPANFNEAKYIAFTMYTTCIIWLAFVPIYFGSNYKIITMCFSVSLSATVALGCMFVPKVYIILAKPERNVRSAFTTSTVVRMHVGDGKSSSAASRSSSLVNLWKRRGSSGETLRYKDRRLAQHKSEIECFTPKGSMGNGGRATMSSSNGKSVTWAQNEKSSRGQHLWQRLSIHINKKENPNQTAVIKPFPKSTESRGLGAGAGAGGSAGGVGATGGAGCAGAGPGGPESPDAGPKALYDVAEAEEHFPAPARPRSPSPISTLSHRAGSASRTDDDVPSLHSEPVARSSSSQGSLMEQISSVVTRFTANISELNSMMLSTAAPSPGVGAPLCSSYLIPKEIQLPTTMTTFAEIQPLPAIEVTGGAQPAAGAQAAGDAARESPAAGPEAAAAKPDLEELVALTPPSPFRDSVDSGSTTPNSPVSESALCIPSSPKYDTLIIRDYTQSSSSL

%Glumin (human mGlu5 [2]; human mGlu5-HEK293A cells) [%] | pIC50 (human mGlu5 [2]; [11]) | IC50 (human mGlu5 [2]; [12]) [µM] | Compound | other results
2 | 7.22 | 0.061 | O=C(Nc1ccc(F)cn1)c1cc(O[C@@H]2CCOC2)c2sccc2n1 [19aB] | human f u,plasma [1]: 0.008; rat CLhep [3]: 55.1 mL/min/kg
6 | 5.98 | 1.07 | O=C(Nc1cccc(F)n1)c1cc(O[C@@H]2CCOC2)c2sccc2n1 [19aC] | IC50 (human mGlu5 [2]; in μM, read-out: hmGlu5 IC50): 1.1 µM
2 | 7.66 | 0.022 | Cc1cccc(NC(=O)c2cc(O[C@@H]3CCOC3)c3sccc3n2)n1 [19aD] | human f u,plasma [1]: 0.005; rat CLhep [3]: 57.5 mL/min/kg
2 | 6.08 | 0.845 | Cc1cccc(NC(=O)c2cc(O[C@@H]3CCOC3)c3sccc3n2)c1 [19aE] | –
66 | < 5 | > 10 | Cc1nc(NC(=O)c2cc(O[C@@H]3CCOC3)c3sccc3n2)ccc1F [19aG] | –
6 | 5.62 | 2.56 | CCc1csc(NC(=O)c2cc(O[C@@H]3CCOC3)c3sccc3n2)n1 [19aH] | –
3 | 5.75 | 1.83 | O=C(Nc1nccs1)c1cc(O[C@@H]2CCOC2)c2sccc2n1 [19aK] | –
2 | 7.27 | 0.055 | O=C(Nc1nc(CF)cs1)c1cc(O[C@@H]2CCOC2)c2sccc2n1 [19aL] | human f u,plasma [1]: 0.016; rat CLhep [3]: 41.8 mL/min/kg
18 | 6.50 | 0.32 | O=C(Nc1nc(C(F)F)cs1)c1cc(O[C@@H]2CCOC2)c2sccc2n1 [19aM] | –
3 | 6.27 | 0.559 | N#Cc1csc(NC(=O)c2cc(O[C@@H]3CCOC3)c3sccc3n2)n1 [19aN] | –
50 | < 5 | > 10 | Cc1coc(NC(=O)c2cc(O[C@@H]3CCOC3)c3sccc3n2)n1 [19aP] | –
73 | < 5 | > 10 | Cc1nsc(NC(=O)c2cc(O[C@@H]3CCOC3)c3sccc3n2)n1 [19aQ] | –
2 | 6.45 | 0.357 | Cc1csc(NC(=O)c2cc(O[C@@H]3CCOC3)c3sc(C)cc3n2)n1 [19cA] | –
– | – | – | Cc1cc2nc(C(=O)Nc3ccc(F)cn3)cc(O[C@@H]3CCOC3)c2s1 [19cB] | IC50 (nM) (human mGlu5 [2]; [11]): inactive
2 | 7.04 | 0.093 | Cc1csc(NC(=O)c2cc(O[C@@H]3CCOC3)c3ccn(C)c3n2)n1 [19dA] | human f u,plasma [1]: 0.006; rat CLhep [3]: 52.3 mL/min/kg
12 | 5.98 | 1.06 | Cn1ccc2c(O[C@@H]3CCOC3)cc(C(=O)Nc3ccc(F)cn3)nc21 [19dB] | –
46 | < 5 | > 10 | Cn1ccc2nc(C(=O)Nc3ccc(F)cn3)cc(O[C@@H]3CCOC3)c21 [19eB] | –
6 | 6.74 | 0.192 | Cc1csc(NC(=O)c2cc(O[C@@H]3CCOC3)c3ccccc3n2)n1 [19fA] | –
15 | 5.59 | 2.65 | O=C(Nc1ccc(F)cn1)c1cc(O[C@@H]2CCOC2)c2ccccc2n1 [19fB] | –

%Glumin (human mGlu5 [2]; human mGlu5-HEK293A cells) [%] | pIC50 (human mGlu5 [2]; [11]) | IC50 (human mGlu5 [2]; [12]) [µM] | Compound | other results
– | – | – | Cc1csc(NC(=O)c2cc(OC3CC(C)(C)OC3(C)C)c3sccc3n2)n1 (stereo not shown) [22b] | IC50 (nM) (human mGlu5 [2]; [11]): inactive
25 | < 5 | > 10 | Cc1csc(NC(=O)c2cc(OC3CCOCC3)c3sccc3n2)n1 [22d] | –
2 | 6.76 | 0.185 | Cc1csc(NC(=O)c2cc(OC3COC3)c3sccc3n2)n1 [22e] | –
12 | 6.17 | 0.682 | CO[C@@H](C)COc1cc(C(=O)Nc2nc(C)cs2)nc2ccsc12 [22g] | –
– | – | – | Cc1csc(NC(=O)c2cc(OC3CC(C#N)C3)c3sccc3n2)n1 (stereo not shown) [22i] | human f u,plasma [1]: 0.005; rat CLhep [3]: 48.2 mL/min/kg
2 | 6.98 | 0.107 | Cc1csc(NC(=O)c2cc(OC3CSC3)c3sccc3n2)n1 [22j] | human f u,plasma [1]: 0.001; rat CLhep [3]: 68.4 mL/min/kg
– | – | – | Cc1csc(NC(=O)c2cc(O[C@@H]3CCOC3)cnn2)n1 [27aA] | IC50 (nM) (human mGlu5 [2]; [11]): inactive
– | – | – | O=C(Nc1ccc(F)cn1)c1cncc(O[C@@H]2CCOC2)c1 [27bB] | IC50 (nM) (human mGlu5 [2]; [11]): inactive
3 | 5.88 | 1.57 | O=C(Nc1ccc(F)cn1)c1cc(O[C@@H]2CCOC2)cc(F)c1F [27cB] | IC50 (human mGlu5 [2]; in μM, read-out: hmGlu5 IC50): 1.6 µM
– | – | – | O=C(Nc1ccc(F)cn1)c1cc(O[C@@H]2CCOC2)ncn1 [27eB] | IC50 (nM) (human mGlu5 [2]; [11]): inactive
2 | 5.69 | 2.05 | Cc1csc(NC(=O)c2cc(O[C@@H]3CCOC3)c3ccncc3n2)n1 [27gA] | IC50 (human mGlu5 [2]; in μM, read-out: hmGlu5 IC50): 2.1 µM
3 | 5.76 | 1.78 | O=C(Nc1ccc(F)cn1)c1cc(O[C@@H]2CCOC2)c2ccncc2n1 [27gB] | –
– | – | – | N#Cc1cc(F)cc(-c2nc(-c3ccc(F)cn3)no2)c1 [AZD9272] | adverse effect in clinical trials [4]: psychosis-like symptoms
– | – | – | O=C(c1ccc(OC(F)F)c(C#Cc2ccccn2)c1)N1Cc2cccnc2C1 [GRN-529] | glutathione conjugation to the alkyne [5]: extensive glutathione conjugation; toxicology finding ([5]; nonhuman primates, 8-week regulatory toxicology study): biliary epithelial hyperplasia; also recorded: hepatotoxicity observed
– | – | – | Cc1csc(NC(=O)c2cc(F)cc(Oc3cncnc3)c2)n1 [VU0409106] | %F ([6]; in vivo): < 5%
– | – | – | Cc1cc(Oc2cncnc2)cc(C(=O)Nc2ccc(F)cn2)n1 [compound 10, N-(5-Fluoropyridin-2-yl)-6-methyl-4-(pyrimidin-5-yloxy)picolinamide] | toxicology finding [7]: pronounced anemia
– | – | – | Cc1cc(O[C@@H]2CCOC2)cc(C(=O)Nc2ccc(F)cn2)n1 [compound 11] | rat brain:plasma K p,uu [8]: 0.79; predicted hepatic clearance in rat (CLhep) [9]: 51 mL/min/kg; oral bioavailability (%F) [6]: 5.5%; IC50 (human mGlu5 [10]): 22 nM
– | – | – | O=C(NCc1ccc(F)cn1)c1cc(Oc2cccnc2)c2sccc2n1 [compound 13] | M1 PAM (M1): > 30 µM
– | – | – | CN1CC(=O)N=C1NC(=O)Nc1cccc(Cl)c1 [fenobam] | adverse effect in clinical trials [4]: psychosis-like symptoms
